From PubChem BioAssay AID248 (DTP/NCI, 2004)
Inconclusive results and toxic doses are left out. No stated cut-off is given here; in the data, active means T/C of 150% or more; inactive means T/C below 125%.

Tested on: L1210 leukemia ip in BDF1 mice, survival T/C
Assay: NCI In Vivo Anticancer Drug Screen. Data for tumor model L1210 Leukemia (intraperitoneal) in B6D2F1 (BDF1) mice
Settings: endpoint: mean survival time, higher = longer survival
Outline: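 Ratio derived from survival: compound-dosed mice over vehicle-dosed mice, all bearing a transplantable tumor.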

Measured: T/C

CNc1nc(N(C)C)nc(C)c1[N+](=O)[O-]
inactive: dose: 50.0 mg/kg/injection, schedule: Q01DX009 (ip), vehicle: Klucel (hydroxypropylcellulose) (HPC) 91 % of control | dose: 100.0 mg/kg/injection, schedule: Q01DX009 (ip), vehicle: Klucel (hydroxypropylcellulose) (HPC) 98 % of control | dose: 200.0 mg/kg/injection, schedule: Q01DX009 (ip), vehicle: Klucel (hydroxypropylcellulose) (HPC) 105 % of control

COC(=O)c1ccc([N+](=O)[O-])c(OC)c1
inactive: dose: 75.0 mg/kg/injection, schedule: Q01DX001 (ip), vehicle: saline 91 % of control | dose: 75.0 mg/kg/injection, schedule: Q04DX003 (ip), vehicle: saline 94 % of control | dose: 150.0 mg/kg/injection, schedule: Q01DX001 (ip), vehicle: saline 91 % of control | dose: 150.0 mg/kg/injection, schedule: Q04DX003 (ip), vehicle: saline 108 % of control | dose: 300.0 mg/kg/injection, schedule: Q01DX001 (ip), vehicle: saline 93 % of control | dose: 300.0 mg/kg/injection, schedule: Q04DX003 (ip), vehicle: saline 101 % of control

O=C(NS(=O)(=O)c1ccc(Cl)cc1)c1cccc2ccccc12
inactive: dose: 100.0 mg/kg/injection, schedule: Q01DX009 (ip), vehicle: saline with Tween-80 91 % of control

C/C(=N\[N+](C)(C)C)c1cccc(C)n1
inactive: dose: 25.0 mg/kg/injection, schedule: Q01DX009 (ip), vehicle: saline 97 % of control | dose: 25.0 mg/kg/injection, schedule: Q04DX003 (ip), vehicle: saline 107 % of control | dose: 50.0 mg/kg/injection, schedule: Q01DX009 (ip), vehicle: saline 105 % of control | dose: 50.0 mg/kg/injection, schedule: Q04DX003 (ip), vehicle: saline 102 % of control | dose: 100.0 mg/kg/injection, schedule: Q01DX001 (ip), vehicle: saline 103 % of control | dose: 100.0 mg/kg/injection, schedule: Q01DX009 (ip), vehicle: saline 100 % of control | dose: 100.0 mg/kg/injection, schedule: Q04DX003 (ip), vehicle: saline 100 % of control
